Melting point and inhibition data for 22 compounds are collected here from patent US7923465B2, “Cannabinoid receptor ligands, pharmaceutical compositions containing them, and process for their preparation” (priority 2005, dated 2011).

The structures appear in SMILES notation.

Series [1] has as its target hCB2 (Homo sapiens, UniProt P34972). Put plainly: In vitro binding assay using hCB2-CHO membranes, [3H]-CP-55,940 displacement (Protocol IV). Also on record: expressed in transfected cells; host or cells: CHO (hCB2-CHO, generated in-house). The conditions noted are these: 1 h; hCB2-CHO membranes, [3H]-CP-55,940 displacement; read-out: % Displacement Protocol IV. The essentials: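 Compounds were tested at a single 300 nM final concentration for displacing 0.75 nM [3H]-CP-55,940 from hCB2-CHO membranes (1 h, 30 °C, 50 mM Tris pH 7.4, 5 mM MgCl2, 1 mM EDTA, 0.1% BSA). Filter-bound radioactivity was counted, with 0.5 μM unlabelled CP-55,940 for nonspecific binding; results are % displacement.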

The target in series [2] is CB1 (Rattus norvegicus, UniProt P20272). Put plainly: Rat CB1 receptor binding using brain membrane, [3H]SR141716A displacement (Protocol I). To be noted: 1 h; rat brain membrane, [3H]SR141716A displacement; read-out: % Displacement Protocol I. Also on record: CB1 receptor present in a rat brain membrane preparation; from tissue; host or cells: rat brain membrane; inhibition: dose or concentration left out as unconfirmed. The method, then: I. In Vitro Protocol for Rat CB1 Receptor Binding Using Brain Membrane
In this assay, [^3H]SR141716A (5-(4-chlorophenyl)-1-(2,4-dichlorophenyl)-4-methyl-N-(1-piperidyl)pyrazole-3-carboxamide) was used to bind the CB1 receptor present in a rat brain membrane preparation which can be displaced by unlabeled ligands having affinity to the CB1 receptor.
The assay was performed according to the modified method of Thomas et al., 1998 (JPET 285: 285-292). The total reaction mixture ([…]) contained Tris-BSA buffer (50 mM Tris, pH 7.4 with 1.5% BSA) or unlabeled SR141716A […] or test samples […], [^3H] SR141716A (2 nM) and […] of rat brain membrane. The non-specific binding was defined by […] of SR141716A. The assay mixture was incubated at 37° C. for 1 hour. The reaction was then stopped by rapid filtration under vacuum using Whatman GF/B-96 micro filter plate. A scintillation cocktail was added and radioactive counts were measured using a Topcount beta scintillation counter.
The standard and test sample dilutions were made in an assay buffer containing either ethanol or DMSO at a final concentration of 1%.
The percent (%) displacement by a test ligand was calculated by comparing the specific bound values.

Chain of hCB2 (P34972 whole entry): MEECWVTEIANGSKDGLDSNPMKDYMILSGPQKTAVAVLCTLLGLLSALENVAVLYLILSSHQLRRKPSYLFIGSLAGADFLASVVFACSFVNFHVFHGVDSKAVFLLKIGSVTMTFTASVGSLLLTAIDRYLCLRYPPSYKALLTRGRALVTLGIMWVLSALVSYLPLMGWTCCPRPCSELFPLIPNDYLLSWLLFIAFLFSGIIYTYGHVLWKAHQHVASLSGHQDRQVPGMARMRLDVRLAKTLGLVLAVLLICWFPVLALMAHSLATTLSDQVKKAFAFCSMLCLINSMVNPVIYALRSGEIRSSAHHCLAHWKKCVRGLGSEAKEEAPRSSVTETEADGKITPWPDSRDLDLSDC
Chain of CB1 (P20272 whole entry): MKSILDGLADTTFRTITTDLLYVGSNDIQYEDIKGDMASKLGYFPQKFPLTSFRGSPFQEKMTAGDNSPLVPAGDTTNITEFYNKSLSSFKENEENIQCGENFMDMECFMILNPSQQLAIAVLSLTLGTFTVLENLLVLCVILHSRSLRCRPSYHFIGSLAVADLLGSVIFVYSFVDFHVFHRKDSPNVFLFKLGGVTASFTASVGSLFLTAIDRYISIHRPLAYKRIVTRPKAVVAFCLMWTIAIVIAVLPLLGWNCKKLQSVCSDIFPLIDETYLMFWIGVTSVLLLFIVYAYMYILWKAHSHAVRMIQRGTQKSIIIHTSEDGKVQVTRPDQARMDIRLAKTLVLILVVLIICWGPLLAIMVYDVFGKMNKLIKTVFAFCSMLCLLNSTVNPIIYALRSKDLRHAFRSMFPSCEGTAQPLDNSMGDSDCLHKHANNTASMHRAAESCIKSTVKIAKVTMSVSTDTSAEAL

In turn, `Cc1ccc(-n2nc(C(=O)NN3CCCCC3)c3c2C2CC4CC(CC3C4)C2)cc1` [Example 160, N(7)-Piperidino-5-(4-methylphenyl)-5,6-diazatetracyclo[7.3.1.1^3,11.0^4,8]tetradeca-4(8),6-diene-7-carboxamide] gave a melting point of 228 to 232 °C. Also, the inhibition at 0.3 µM in series [1] stood at 20.8%. Besides, in series [2], the inhibition turned out to be 10%.

`O=C(NCc1ccccc1)c1nn(-c2ccc(Br)cc2)c2c1C1CCC2C1` (stereo not drawn) [Example 276, N(3)-Benzyl-1-(4-bromophenyl)-4,5,6,7-tetrahydro-1H-4,7-methano-indazole-3-carboxamide] returned a melting point of 89 °C. The inhibition at 0.3 µM in series [1] was 14.1%. The inhibition in series [2] came out at 25.3%.

`O=C(Nn1cnnc1)c1nn(-c2ccc(Cl)cc2Cl)c2c1C1CCC2C1` (stereo not drawn) [Example 240, N(3)-(4H-1,2,4-triazol-4-yl)-1-(2,4-dichlorophenyl)-4,5,6,7-tetrahydro-1H-4,7-methano-indazole-3-carboxamide] registered a melting point of 231 to 233 °C. In series [1], the inhibition at 0.3 µM worked out at 7.98%. Also, in series [2], the inhibition amounted to 1.5%.

As to `O=C(NCc1ccccn1)c1nn(-c2ccc(Cl)cc2)c2c1C1CC3CC(C1)CC2C3` [Example 120, N(7)-(2-Pyridylmethyl)-5-(4-chlorophenyl)-5,6-diazatetracyclo[7.3.1.1^3,11.0^4,8]tetradeca-4(8),6-diene-7-carboxamide], the melting point worked out at 187 °C. In series [1], the inhibition at 0.3 µM is 9.18%. The inhibition in series [2] stood at 30.4%.

The compound `O=C(NN1CCOCC1)c1nn(-c2ccc(Cl)cc2)c2c1C1CC3CC(C1)CC2C3` [Example 103, N(7)-Morpholino-5-(4-chlorophenyl)-5,6-diazatetracyclo[7.3.1.1^3,11.0^4,8]tetradeca-4(8),6-diene-7-carboxamide] displayed a melting point of 220 °C. For the same compound, the inhibition at 0.3 µM in series [1] amounted to 6.99%. Further, the inhibition in series [2] is 22.2%.

For `O=C(NNc1ccccc1)c1nn(-c2ccccc2Br)c2c1C1CCC2C1` (stereo not drawn) [Example 273, N(3)-Phenylamino-1-(2-bromophenyl)-4,5,6,7-tetrahydro-1H-4,7-methano-indazole-3-carboxamide], the melting point was determined as 219 °C. The inhibition at 0.3 µM in series [1] amounted to 26.2%. Further, the inhibition in series [2] was -5.9%.

For the compound `O=C(NNc1ccccc1F)c1nn(-c2ccc(Cl)cc2)c2c1C1CCC2C1` (stereo not drawn) [Example 232, N(3)-[(2-Fluorophenyl)amino]-1-(4-chlorophenyl)-4,5,6,7-tetrahydro-1H-4,7-methano-indazole-3-carboxamide], the melting point worked out at 91 °C. In addition, the inhibition at 0.3 µM in series [1] is 13.8%. In series [2], the inhibition worked out at 49.7%.

Compound `Cc1ccc(-n2nc(C(=O)NNc3ccc(Cl)cc3Cl)c3c2C2CC4CC(CC3C4)C2)cc1` [Example 161, N(7)-(2,4-Dichlorophenylamino)-5-(4-methylphenyl)-5,6-diazatetracyclo[7.3.1.1^3,11.0^4,8]tetradeca-4(8),6-diene-7-carboxamide] registered a melting point of 208 to 215 °C. Moreover, the inhibition at 0.3 µM in series [1] amounted to 39.4%. Also, in series [2], the inhibition worked out at 27.9%.

With `O=C(NNc1ccc(Cl)cc1Cl)c1nn(-c2ccccc2)c2c1C1CC3CC(C1)CC2C3` [Example 167, N(7)-[(2,4-Dichlorophenyl)amino]-5-phenyl-5,6-diazatetracyclo[7.3.1.1^3,11.0^4,8]tetradeca-4(8),6-diene-7-carboxamide], the melting point lay within 166 to 170 °C. Moreover, in series [1], the inhibition at 0.3 µM turned out to be 24.6%. Also, the inhibition in series [2] was found to be 61.3%.

`O=C(NNc1ccccc1)c1nn(-c2ccccc2Cl)c2c1C1CCC2C1` (stereo not drawn) [Example 208, N(3)-Phenylamino-1-(2-chlorophenyl)-4,5,6,7-tetrahydro-1H-4,7-methano-indazole-3-carboxamide] showed a melting point of 205 °C. The inhibition at 0.3 µM in series [1] is 0%. Moreover, the inhibition in series [2] was -1.2%.

For `O=C(NNc1ccc(Cl)cc1Cl)c1nn(-c2ccc(Cl)cc2Cl)c2c1C1CC3CC(C1)CC2C3` [Example 175, N(7)-(2,4-Dichlorophenylamino)-5-(2,4-dichlorophenyl)-5,6-diazatetracyclo[7.3.1.1^3,11.0^4,8]tetradeca-4(8),6-diene-7-carboxamide], the melting point is 153 to 156 °C. The inhibition at 0.3 µM in series [1] was determined as 18.5%. In addition, in series [2], the inhibition is 66%.

Turning to `O=C(NNc1ccccc1)c1nn(-c2ccc(Br)cc2)c2c1C1CCC2C1` (stereo not drawn) [Example 277, N(3)-Phenylamino-1-(4-bromophenyl)-4,5,6,7-tetrahydro-1H-4,7-methano-indazole-3-carboxamide], the melting point was determined as 138 °C. For the same compound, the inhibition at 0.3 µM in series [1] turned out to be 22.1%. For the same compound, in series [2], the inhibition was -12.8%.

`O=C(NCc1ccccc1)c1nn(-c2ccc(Cl)cc2)c2c1C1CCC2C1` (stereo not drawn) [Example 220, N(3)-Benzyl-1-(4-chlorophenyl)-4,5,6,7-tetrahydro-1H-4,7-methano-indazole-3-carboxamide] registered a melting point of 112 to 115 °C. The inhibition at 0.3 µM in series [1] was 25.3%. Moreover, the inhibition in series [2] was found to be 29.5%.

`O=C(NCc1ccc(Cl)cc1)c1nn(-c2ccc(Cl)cc2)c2c1C1CCC2C1` (stereo not drawn) [Example 222, N(3)-(4-Chlorobenzyl)-1-(4-chlorophenyl)-4,5,6,7-tetrahydro-1H-4,7-methano-indazole-3-carboxamide] gave a melting point of 157 to 160 °C. For the same compound, the inhibition at 0.3 µM in series [1] was determined as 15.7%. Moreover, the inhibition in series [2] was determined as 39.4%.

On to `O=C(NN1CCCCC1)c1nn(-c2ccc(Br)cc2)c2c1C1CCC2C1` (stereo not drawn) [Example 274, N(3)-Piperidino-1-(4-bromophenyl)-4,5,6,7-tetrahydro-1H-4,7-methano-indazole-3-carboxamide], for which the melting point worked out at 173 °C. Moreover, in series [1], the inhibition at 0.3 µM is 35.4%. Moreover, the inhibition in series [2] was determined as 25.7%.

For `O=C(NNc1ccc(Cl)cc1)c1n[nH]c2c1C1(c3ccc(Cl)cc3)CCC2C1` (stereo not drawn) [Example 229, N(3)-[(4-Chlorophenyl)amino]-4-(4-chlorophenyl)-4,5,6,7-tetrahydro-1H-4,7-methano-indazole-3-carboxamide], the melting point was in the range of 202 to 205 °C. Further, in series [1], the inhibition at 0.3 µM came to 24.6%. In series [2], the inhibition came to 47.1%.

Consider `O=C(NNc1ccccc1)c1nn(-c2ccc(Cl)cc2)c2c1C1CCC2C1` (stereo not drawn) [Example 228, N(3)-Phenylamino-1-(4-chlorophenyl)-4,5,6,7-tetrahydro-1H-4,7-methano-indazole-3-carboxamide], for which the melting point is 138 to 141 °C. The inhibition at 0.3 µM in series [1] turned out to be 9.4%. Also, the inhibition in series [2] was determined as 16.1%.

`O=C(NN1CCCCC1)c1nn(-c2ccccc2)c2c1C1CCC2C1` (stereo not drawn) [Example 201, N(3)-Piperidino-1-phenyl-4,5,6,7-tetrahydro-1H-4,7-methano-indazole-3-carboxamide] showed a melting point of 144 °C. In addition, the inhibition at 0.3 µM in series [1] was found to be 19.8%. The inhibition in series [2] stood at 9%.

For the compound `O=C(NN(c1ccc(Cl)cc1Cl)C1CCCCC1)c1nn(-c2ccc(Cl)cc2)c2c1C1CC3CC(C1)CC2C3` [Example 129, N(7)-(2,4-Dichlorophenyl-N′-cyclohexylamino)-5-(4-chlorophenyl)-5,6-diazatetracyclo[7.3.1.1^3,11.0^4,8]tetradeca-4(8),6-diene-7-carboxamide], the melting point was 95 to 96 °C. Besides, in series [1], the inhibition at 0.3 µM is 62.9%. The inhibition in series [2] amounted to 65.2%.

Turning to `O=C(NNc1ccccc1)c1n[nH]c2c1C1(c3ccccc3)CCC2C1` (stereo not drawn) [Example 204, N(3)-Phenylamino-4-phenyl-4,5,6,7-tetrahydro-1H-4,7-methano-indazole-3-carboxamide], the melting point amounted to 189 °C. The inhibition at 0.3 µM in series [1] amounted to 10.5%. For the same compound, in series [2], the inhibition is -10.3%.

Regarding `O=C(NCc1ccccc1)c1nn(-c2ccccc2Br)c2c1C1CCC2C1` (stereo not drawn) [Example 272, N(3)-Benzyl-1-(2-bromophenyl)-4,5,6,7-tetrahydro-1H-4,7-methano-indazole-3-carboxamide], the melting point was determined as 110 °C. The inhibition at 0.3 µM in series [1] worked out at 18.4%. Besides, the inhibition in series [2] was -4.5%.

As for `O=C(NN1CCCCC1)c1nn(-c2ccccc2Br)c2c1C1CCC2C1` (stereo not drawn) [Example 270, N(3)-Piperidino-1-(2-bromophenyl)-4,5,6,7-tetrahydro-1H-4,7-methano-indazole-3-carboxamide], the melting point was found to be 236 °C. In addition, the inhibition at 0.3 µM in series [1] worked out at 8.62%. In addition, the inhibition in series [2] is -14.6%.
